Test results as given in ChEMBL document CHEMBL4387791, “Bioactive Polyketide Derivatives from the Mangrove-Derived Fungus Daldinia eschscholtzii HJ004” (J Nat Prod, 2019).
Active and inactive are the calls of the source. The calls are words filed in the database; no cut-off is given here.

Legend:
[1] = Inhibition of Saccharomyces cerevisiae alpha-glucosidase using PNP-G as substrate incubated for 20 mins followed by substrate addition
Staphylococcus aureus [2] = assay: Antibacterial activity against methicillin-resistant Staphylococcus aureus ATCC 33591 by microplate assay method; format: functional, organism-based
Vibrio parahaemolyticus = assay: Antibacterial activity against Vibrio parahaemolyticus ATCC 17749 by microplate assay method; format: functional, organism-based
[3] = system: Staphylococcus epidermidis; assay: Antibacterial activity against Staphylococcus albus ATCC 8032 by microplate assay method; format: functional, organism-based
Staphylococcus aureus [4] = assay: Antibacterial activity against Staphylococcus aureus ATCC 25923 by microplate assay method; format: functional, organism-based
Vibrio alginolyticus = assay: Antibacterial activity against Vibrio alginolyticus ATCC 17802 by microplate assay method; format: functional, organism-based

Row | SMILES | IC50 [1] | Activity (Staphylococcus aureus [2]) | Activity (Vibrio parahaemolyticus) | Activity [3] | Activity (Staphylococcus aureus [4]) | Activity (Vibrio alginolyticus)
1 | C[C@H]1O[C@H](O[C@H]2[C@H](O)[C@@H](O)[C@@H](O[C@H]3[C@H](O)[C@@H](O)C(O)O[C@@H]3CO)O[C@@H]2CO)[C@H](O)[C@@H](O)[C@@H]1N[C@H]1C=C(CO)[C@@H](O)[C@H](O)[C@H]1O (stereo partly specified) [ACARBOSE] | 3 µM | – | – | – | – | –
2 | COc1cc(O)cc2oc(C)c(C)c(=O)c12 | 13 µM | inactive | inactive | inactive | inactive | inactive
3 | CCc1c(OC)cc2c(c1O)C(=O)[C@H](C)[C@@H](C)[C@@H]2O | 35 µM | inactive | inactive | inactive | inactive | inactive
4 | CCc1ccc2c(c1O)C(=O)[C@](O)(CC)[C@@H](O)C2 | 38 µM | inactive | inactive | inactive | inactive | inactive
5 | CCc1c(O)cc2c(=O)oc(C)c(C)c(=O)c2c1OC | 54 µM | inactive | inactive | inactive | inactive | inactive
6 | C/C=C(\C)[C@@H]1OC(=O)C(C)(C)[C@@H](O)[C@H]1C | 16 µM | inactive | inactive | inactive | inactive | inactive
7 | CCCc1cc(=O)c2c(OC)cccc2o1 | 84 µM | inactive | inactive | inactive | inactive | inactive
8 | COc1cccc2c1[C@H](O)CCC2=O | 90 µM | inactive | inactive | inactive | inactive | inactive
9 | CCc1c(OC)cc2c(c1O)C(=O)[C@H](C)[C@@H](C)[C@H]2O | 155 µM | inactive | inactive | inactive | inactive | inactive
10 | Cc1cc2c(c(O)c1C)C(=O)C[C@@H](O)[C@H]2O (relative stereo) | 21 µM | inactive | inactive | inactive | inactive | inactive
11 | C/C(=C\CO)[C@@H]1OC(=O)C(C)(C)[C@@H](O)[C@H]1C | 20 µM | inactive | inactive | inactive | inactive | inactive
12 | C/C=C(\C)[C@@H]1OC(=O)C(C)(C)[C@H](O)[C@H]1C | 31 µM | inactive | inactive | inactive | inactive | inactive
13 | COc1cccc2c1C(=O)CC(C)O2 (stereo unspecified) | 15 µM | inactive | inactive | inactive | inactive | inactive
14 | CCc1c(OC)cc2c(=O)c(C)c(C)oc2c1O | 100 µM | inactive | inactive | inactive | inactive | inactive
15 | CC(=O)OC/C=C(\C)[C@@H]1OC(=O)C(C)(C)[C@@H](O)[C@H]1C | 240 µM | inactive | inactive | inactive | inactive | inactive
16 | O=C1CC[C@H](O)c2cccc(O)c21 | 70 µM | inactive | inactive | inactive | inactive | inactive
